This experiment concerns the target T1, human Kv7.2+3 (Homo sapiens, UniProt O43525+O43526).
T1 construct: expressed in transfected cells; host or cells: HEK293
Kind of experiment: FLIPR-based thallium influx characterization of Kv7.2+3 modulators. Format: cell-based. The settings on record: for EC50: HEK293 cells over-expressing human Kv7.2+3, Tl+ influx, BTC-AM, FLIPR, 50% of channel activity compared to retigabine control responses; for Emax: maximal response relative to the reference (retigabine) response, HEK293 human Kv7.2+3, Tl+ influx FLIPR, read-out: Efficacy. As to the method: This experiment determines the ability of a test compound to modulate the activity of Kv7.2+3 channels heterologously expressed in human HEK293 cells. The ability is determined relative to retigabine. The activity is determined using a standard thallium (I) sensitive assay, e.g. using a fluorometric method in a Fluorescent Image Plate Reader (FLIPR) as described below in more detail.
Full concentration/response curves are generated and EC50 values are calculated based on max values. EC50 values (Effective Concentration) represent the concentration of the test substance, at which 50% of the channel activity is obtained when compared to retigabine control responses. Maximal response determined relative to the reference (retigabine) response is calculated.
Human HEK293 cells over-expressing human Kv7.2+3 are grown in culture medium (DMEM supplemented with 10% foetal bovine serum), in polystyrene culture flasks ([…]) in a humidified atmosphere of 5% CO2 in air, at 37° C. Cell confluence should be 80-90% on day of plating. Cells are rinsed with 4 ml of PBS (phosphate buffered saline) and incubated 2 min with 1 ml of Trypsin-EDTA. After addition of 25 ml of culture medium cells are re-suspended by trituration with a 25 ml pipette.
The cells are seeded at a density of ˜3×10^6 cells/ml (25 μl/well) in black-walled, clear bottom, 384-well plates pre-treated with 0.01 g/l poly-D-lysin (20 μl/well for ≧30 min). Plated cells were allowed to proliferate for 24 h before loading with dye.
BTC-AM ([…], Invitrogen) is added 25.5 μl DMSO. The BTC-AM stock solution (2 mM) is diluted to a final concentration of 2 μM in Cl^− free assay buffer (in mM: 140 Natgluconate, 2.5 K^+-gluconate, 6 Ca2^+-gluconate, 1 Mg^2+ gluconate, 5 glucose, 10 HEPES, pH 7.3) containing 2 μM ouabain, 2 mM amaranth and 1 mM tartrazine.
The culture medium is aspirated from the wells, the cells are washed thrice in Cl^− free assay buffer, and 25 μl of the BTC-AM loading solution is added to each well. The cells are incubated at 37° C. for 60 min.
After the loading period, the Tl^+-sensitive BTC fluorescence signal is measured over time using a FLIPR.
• Temperature: Room temp. • First addition: 12 μl test or control compound after 15 sec at a rate of 30 μl/sec and starting height of 20 μl • Second addition: 12 μl stimulus buffer (Cl^− free assay buffer supplemented with 1 mM Tl2SO4, 5 mM K2SO4 as well as the quenchers amaranth (2 mM) and tartrazine (1 mM)) is added after an additional 3 minutes at a rate of 30 μl/sec and starting height of 30 μl • Reading intervals: First sequence—3 sec×5, 2 sec×24 and 5 sec×25 • Second sequence—1 sec×5, 2 sec×24 and 5 sec×36
Addition plates (compound plate and stimulus plate) are placed in positions 2 and 3, respectively. Cell plates are placed in position 1 and run using the “KCNQ (two additions)” program. FLIPR will then take the appropriate measurements in accordance with the interval settings above. Fluorescence obtained after stimulation is corrected for the mean basal fluorescence (in Cl^− free assay buffer).
Full concentration/response curves are generated and EC50 values (“Effective Concentration”; the concentration at which 50% of the channel activity is obtained when compared to retigabine control responses) are calculated based on peak values. Maximal response determined relative to the reference (retigabine) response is calculated.

Turning to `CN(C)c1nc2cc(F)ccc2c(=O)n1NC(=O)[C@@H]1C[C@@H]1c1ccc(Cl)cc1` (relative stereo) [Compound 2.1, cis-2-(4-Chloro-phenyl)-cyclopropanecarboxylic acid (2-dimethylamino-7-fluoro-4-oxo-4H-quinazolin-3-yl)-amide], the EC50 (commonly the concentration at which the effect is half-maximal) is 1400 nM and the Emax was 118%.

As to `CC(C)N(C)c1nc2cc(F)cc(F)c2c(=O)n1NC(=O)[C@@H]1C[C@@H]1c1ccc(Cl)cc1` (relative stereo) [Compound 2.2, cis-2-(4-Chloro-phenyl)-cyclopropanecarboxylic acid [5,7-difluoro-2-(isopropyl-methyl-amino)-4-oxo-4H-quinazolin-3-yl]-amide], the EC50 worked out at 450 nM and the Emax is 116%.

For the molecule `O=C(Nn1c(N2CCCC2)nc2cc(F)cc(F)c2c1=O)[C@@H]1C[C@@H]1c1ccc(Cl)cc1` (relative stereo) [Compound 2.3, cis-2-(4-Chloro-phenyl)-cyclopropanecarboxylic acid (5,7-difluoro-4-oxo-2-pyrro-lidin-1-yl-4H-quinazolin-3-yl)-amide], the concentration for a half-maximal effect (EC50) stood at 830 nM and the Emax came out at 109%.

Take `CCN(C)c1nc2cc(F)ccc2c(=O)n1NC(=O)[C@@H]1C[C@@H]1c1ccc(Cl)cc1` (relative stereo) [Compound 2.4, cis-2-(4-Chloro-phenyl)-cyclopropanecarboxylic acid [2-(ethyl-methyl-amino)-7-fluoro-4-oxo-4H-quinazolin-3-yl]-amide]: the EC50 is 940 nM and the Emax amounted to 114%.

For the molecule `CC(C)N(C)c1nc2cc(F)ccc2c(=O)n1NC(=O)[C@@H]1C[C@@H]1c1ccc(Cl)cc1` (relative stereo) [Compound 2.5, cis-2-(4-Chloro-phenyl)-cyclopropanecarboxylic acid [7-fluoro-2-(isopropyl-methyl-amino)-4-oxo-4H-quinazolin-3-yl]-amide], a half-maximal effect (EC50) was put at 930 nM and the Emax came to 114%.

Turning to `CCN(C)c1nc2cc(F)cc(F)c2c(=O)n1NC(=O)[C@@H]1C[C@@H]1c1ccc(Cl)cc1` (relative stereo) [Compound 2.6, cis-2-(4-Chloro-phenyl)-cyclopropanecarboxylic acid [2-(ethyl-methyl-amino)-5,7-difluoro-4-oxo-4H-quina-zolin-3-yl]-amide], the half-maximal effective concentration (EC50) worked out at 500 nM and the Emax was 110%.

On to `O=C(Nn1c(N2CCCC2)nc2c(F)cccc2c1=O)[C@@H]1C[C@@H]1c1ccc(Cl)cc1` (relative stereo) [Compound 2.7, cis-2-(4-Chloro-phenyl)-cyclopropanecarboxylic acid (8-fluoro-4-oxo-2-pyrrolidin-1-yl-4H-quinazolin-3-yl)-amide], for which the EC50 turned out to be 270 nM and the Emax was 101%.

Turning to `O=C(CCc1cccc(F)c1)Nn1c(N2CCCC2)nc2cc(F)ccc2c1=O` [Compound 1.1, N-(7-Fluoro-4-oxo-2-pyrrolidin-1-yl-4H-quinazolin-3-yl)-3-(3-fluoro-phenvl)-propion-amide], the response was half-maximal at 260 nM (EC50) and the Emax was determined as 154%.

On to `COCCN(C)c1nc2ccccc2c(=O)n1NC(=O)CCc1cccc(F)c1` [Compound 1.2, 3-(3-Fluoro-phenyl)-N-{2-[(2-methoxy-ethyl)-methyl-amino]-4-oxo-4H-quinazolin-3-yl}-propionamide], for which the 50% effective concentration (EC50) stood at 9500 nM and the Emax is 130%.

`CN(Cc1ccccc1)c1nc2ccccc2c(=O)n1NC(=O)CCc1cccc(F)c1` [Compound 1.3, N-[2-(Benzyl-methyl-amino)-4-oxo-4H-quinazolin-3-yl]-3-(3-fluoro-phenyl)-propion-amide]: the 50% effective concentration (EC50) was 1600 nM and the Emax was 118%.

Consider `CN(Cc1ccccc1)c1nc2ccccc2c(=O)n1NC(=O)CCc1cc(F)cc(F)c1` [Compound 1.4, N-[2-(Benzyl-methyl-amino)-4-oxo-4H-quinazolin-3-yl]-3-(3,5-difluoro-phenyl)-propionamide], for which the EC50 was found to be 3900 nM and the Emax amounted to 40%.
